Laboratory results from PMC12720098, “Prolintane analogs as hybrid monoamine transporter ligands: Structural determinants and species differences” (The Journal of Biological Chemistry, 2025).
Read-outs that look alike come from different tables or passages of the source.

Key:
hNET = target: T1, hNET (Homo sapiens, UniProt P23975); test: Uptake inhibition assay ([3H]MPP+) in transfected HEK293 cells; type: cell-based
T1 construct: expressed in transfected cells
Description: HEK293 cells stably expressing human monoamine transporters hSERT, hDAT or hNET were seeded into poly-D-lysine (PDL) coated 96-well plates with a density of approximately 36,000 cells per well 1 day prior to experiments. A day after seeding, the cell medium was replaced with 200 μl Krebs-HEPES-buffer (KHB; 120 mM NaCl, 3 mM KCl, 2 mM CaCl2·2H2O, 2 mM MgCl2·6H2O, 20 mM D-glucose, pH = 7.3). The test drugs were initially dissolved in Milli-Q H2O or dimethyl sulfoxide (DMSO) at a concentration of 10 to 100 mM. Then, cells were treated with the respective concentration of the test drug diluted in KHB for 5 min as a pre-incubation step. Subsequently, in the uptake step, the solution was replaced with 50 μl/well diluted drug solution and tritiated substrate (hDAT: 0.1 μM [^3H]DA; hNET: 0.02 μM [^3H]MPP^+; hSERT: 0.1 μM [^3H]5-HT) for 1 min (hDAT, hSERT) or 3 min (hNET). After incubation, cells were immediately washed with 200 μl KHB to stop uptake. Uptake was indirectly measured by quantifying beta emission with liquid scintillation counting (Wallac 1450 MicroBeta TriLux Liquid Scintillation Counter & Lumi; GMI). Therefore, 200 μl Ultima Gold XR scintillation cocktail (PerkinElmer, MA, USA) was added to each well.
(§1) Half-maximal inhibitory concentrations (IC50) were obtained from fitting a sigmoidal dose–response ( Y=Bottom+Top−Bottom/1+10^((LogIC50−X)·HillSlope) ) in GraphPad Prism 10.3.1 (GraphPad Software Inc.). Uptake inhibition data were evaluated by one-way ANOVA followed by Tukey's multiple comparisons test. Release data were analyzed using a two-way ANOVA (batch release) or a mixed-effects model with Geisser-Greenhouse correction (time-dependent traces) employing Šidák correction for comparing differences between compounds with or without the addition of monensin.

hSERT [1] = target: T2, hSERT (Homo sapiens, UniProt P31645); type: cell-based; details: for Mean diff, hSERT efflux ± Mon (Šídák's multiple comparisons test): drug alone vs drug + monensin (Mon); for hSERT efflux ± Mon, mean diff: superfusion
T2 construct: expressed in transfected cells
Description: A day prior to the experiment, HEK293 cells stably expressing hSERT or rat SERT (rSERT) were seeded at a density of 100,000 cells per channel into 6 channel flow ibidi slides (Gräfelfing, Germany). On the day of the experiments, cells were preloaded with 0.1 μM [^3H]5-HT at 37 °C, 5% CO2 for 20 min. Subsequently, the slides were transferred to the superfusion apparatus ([59]). Cells were then washed with KHB for 15 min under a constant flow of 0.5 ml/min. Fractions were collected every 2 min in 8 ml vials containing 2 ml scintillation cocktail. Collection began with three baseline fractions using KHB, followed by four additional basal release fractions with KHB, either with or without 10 μM monensin. […] To assess residual radioactivity within the cells, they were lysed with 1% sodium dodecyl sulfate (SDS), and three final fractions were obtained. The measured tritiated substrate in each fraction was expressed as a percentage of the initial tritiated substrate present at the start of that fraction.
as §1

hSERT [2] = target: T2, hSERT; type: cell-based; details: batch release, % efflux of total uptake, compounds approximately at IC50 concentration
Description: Batch release assays were performed as described previously ([44]). In brief, HEK293 cells stably expressing monoamine transporters were seeded similar to the procedure used for uptake inhibition assays. A day after seeding cells were pre-loaded with 50 μl/well 0.015 μM [^3H]MPP^+ (hDAT, hNET), or 0.08 μM [^3H]5-HT (hSERT) for 20 min at 37 °C. Then cells were washed four times for 3 to 4 min each and further incubated with KHB or KHB + monensin. After 10 min of incubation, two (screening) to four (full traces; hSERT) 2 min incubations were performed to establish a baseline release without substance. […] Each fraction was transferred to an empty well in the 96-well plate. For screening, a known inhibitor (hDAT, hNET: 50 μM GBR12909) and releaser (hDAT, hNET: 10 μM S-(+)-amphetamine) were used as controls. Ultima Gold XR scintillation cocktail was added to the remaining cells, and each well contained a release fraction. The counted radioactivity in the respective fraction was expressed as a percentage of total radioactivity at the start of the fraction.
as §1

rDAT = target: T3, rDAT (Rattus norvegicus, UniProt P23977); test: Uptake inhibition assay ([3H]dopamine) in rat brain synaptosomes; type: biochemical; details: for DAT/SERT ratio: rat isoform (r), 1/DAT IC50 / 1/SERT IC50
T3 construct: As a means to evaluate transporter activity of prolintane analogs in native tissue preparation; from tissue; host or cells: rat caudate synaptosomes
Description: Rats were killed by CO2 narcosis and decapitated, then synaptosomes were prepared from brains using standard procedures. In brief, synaptosomes were prepared from caudate tissue for rat DAT (rDAT) assays, or from whole brain minus caudate and cerebellum for rat NET (rNET) and rat SERT (rSERT) assays. Brain tissue was homogenized in ice-cold 10% sucrose followed by centrifugation at 1000g for 10 min. The resulting supernatant containing crude synaptosomes was kept on ice until use in uptake or release procedures. Uptake inhibition and release assays were carried out as previously described ([62], [63]).
For uptake inhibition assays, 5 nM [^3H]dopamine, 10 nM [^3H]norepinephrine, or 5 nM [^3H]5-HT was used as the radiolabeled transmitter for rDAT, rNET, or rSERT, respectively. To optimize uptake for a single transporter, unlabeled blockers were included that prevented uptake of [^3H]transmitter by competing transporters: 50 nM GBR 12935 was added to NET and SERT assays to block DAT, 100 nM nomifensine was added to SERT assays to block NET. Uptake assays were initiated by adding 100 μl of tissue to 900 μl Krebs-phosphate buffer (126 mM NaCl, 2.4 mM KCl, 0.83 mM CaCl2, 0.8 mM MgCl2, 0.5 mM KH2PO4, 0.5 mM Na2SO4, 11.1 mM glucose, 0.05 mM pargyline, 1 mg/ml bovine serum albumin, and 1 mg/ml ascorbic acid, pH 7.4) containing test drug and [^3H]transmitter. Uptake assays were terminated by rapid vacuum filtration, and retained radioactivity was quantified with liquid scintillation counting.
Effects of test drugs on release and uptake inhibition were analyzed by nonlinear regression using GraphPad Prism 9 (GraphPad Scientific, San Diego, CA, USA). Concentration–response values for the uptake inhibition and release were fit to the equation, Y(x)=Ymin+Ymax−Ymin/1+10^((LogP50−LogX)·n) , where x is the concentration of the compound tested, Y(x) is the response measured, Ymax is the maximal response, P50 is either IC50 (the concentration that yields half-maximal uptake inhibition response) or EC50 (the concentration that yields half-maximal release response), and n is the Hill slope parameter.

T3 sequence (P23977 whole entry, canonical isoform): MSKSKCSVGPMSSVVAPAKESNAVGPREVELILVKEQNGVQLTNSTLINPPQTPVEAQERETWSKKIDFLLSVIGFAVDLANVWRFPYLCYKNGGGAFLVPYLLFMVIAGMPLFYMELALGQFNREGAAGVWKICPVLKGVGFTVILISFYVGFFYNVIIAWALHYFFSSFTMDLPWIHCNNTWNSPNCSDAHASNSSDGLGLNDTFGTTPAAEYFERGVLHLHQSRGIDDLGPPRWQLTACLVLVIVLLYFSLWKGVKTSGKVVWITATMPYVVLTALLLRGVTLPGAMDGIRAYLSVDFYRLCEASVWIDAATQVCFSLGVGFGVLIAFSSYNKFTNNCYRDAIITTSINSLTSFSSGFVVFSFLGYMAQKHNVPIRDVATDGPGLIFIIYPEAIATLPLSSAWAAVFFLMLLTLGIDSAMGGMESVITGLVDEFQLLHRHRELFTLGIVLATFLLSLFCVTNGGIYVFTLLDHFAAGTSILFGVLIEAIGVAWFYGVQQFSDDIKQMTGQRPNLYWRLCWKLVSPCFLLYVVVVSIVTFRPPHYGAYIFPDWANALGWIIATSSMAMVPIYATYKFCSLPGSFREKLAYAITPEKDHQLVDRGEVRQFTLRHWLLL
T2 sequence (P31645 whole entry, the tested form may be a part): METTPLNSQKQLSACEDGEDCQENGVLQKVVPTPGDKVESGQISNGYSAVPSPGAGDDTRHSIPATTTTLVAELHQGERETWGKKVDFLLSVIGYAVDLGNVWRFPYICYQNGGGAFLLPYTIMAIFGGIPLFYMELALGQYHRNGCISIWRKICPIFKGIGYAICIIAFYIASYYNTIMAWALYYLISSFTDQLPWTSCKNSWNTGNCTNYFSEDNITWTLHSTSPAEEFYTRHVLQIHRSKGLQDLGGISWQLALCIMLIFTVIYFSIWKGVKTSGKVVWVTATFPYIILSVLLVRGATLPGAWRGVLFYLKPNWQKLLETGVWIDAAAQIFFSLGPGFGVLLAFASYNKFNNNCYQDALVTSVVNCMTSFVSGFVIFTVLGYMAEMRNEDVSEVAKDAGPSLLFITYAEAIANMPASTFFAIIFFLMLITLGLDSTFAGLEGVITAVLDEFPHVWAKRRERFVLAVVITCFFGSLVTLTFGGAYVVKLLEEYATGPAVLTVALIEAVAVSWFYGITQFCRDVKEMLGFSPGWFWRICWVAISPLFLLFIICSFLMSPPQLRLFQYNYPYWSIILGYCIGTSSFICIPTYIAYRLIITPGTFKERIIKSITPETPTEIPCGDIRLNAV
T1 sequence (P23975 whole entry): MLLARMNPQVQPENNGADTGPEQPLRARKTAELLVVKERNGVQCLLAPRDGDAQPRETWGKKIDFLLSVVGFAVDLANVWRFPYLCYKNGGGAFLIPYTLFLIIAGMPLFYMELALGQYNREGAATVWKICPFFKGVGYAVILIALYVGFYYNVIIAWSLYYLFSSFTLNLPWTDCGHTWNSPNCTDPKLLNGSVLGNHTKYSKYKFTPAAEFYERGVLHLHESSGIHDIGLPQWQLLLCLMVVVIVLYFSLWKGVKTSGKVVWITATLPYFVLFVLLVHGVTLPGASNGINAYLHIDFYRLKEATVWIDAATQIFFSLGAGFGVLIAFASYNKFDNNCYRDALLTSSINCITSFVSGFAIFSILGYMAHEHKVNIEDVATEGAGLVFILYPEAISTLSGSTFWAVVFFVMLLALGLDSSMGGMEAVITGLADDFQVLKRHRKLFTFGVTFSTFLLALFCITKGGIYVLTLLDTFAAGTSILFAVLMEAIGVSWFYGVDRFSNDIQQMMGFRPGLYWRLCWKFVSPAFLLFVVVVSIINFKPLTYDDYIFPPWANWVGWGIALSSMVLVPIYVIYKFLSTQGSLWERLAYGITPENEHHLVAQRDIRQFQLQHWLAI

CCCC(Cc1ccc(C)cc1)N1CCCC1 (centres unmarked) [4-Methylprolintane, 1-[1-(4-methylphenyl)pentan-2-yl]pyrrolidine]
IC50 (hNET): 72 ± 14 nM | Mean diff, hSERT efflux ± Mon (Šídák's multiple comparisons test) (hSERT [1]; Row 1 (time fraction)): -0,002444 | Mean diff, hSERT efflux ± Mon (Šídák's multiple comparisons test) (hSERT [1]; Row 2 (time fraction)): 0,005667 | Mean diff, hSERT efflux ± Mon (Šídák's multiple comparisons test) (hSERT [1]; Row 3 (time fraction)): -0,04278 | Mean diff, hSERT efflux ± Mon (Šídák's multiple comparisons test) (hSERT [1]; Row 4 (time fraction)): -0,1390 | Mean diff, hSERT efflux ± Mon (Šídák's multiple comparisons test) (hSERT [1]; Row 5 (time fraction)): -0,3006 | Mean diff, hSERT efflux ± Mon (Šídák's multiple comparisons test) (hSERT [1]; Row 6 (time fraction)): -0,3681 | Mean diff, hSERT efflux ± Mon (Šídák's multiple comparisons test) (hSERT [1]; Row 7 (time fraction)): -0,4242 | Mean diff, hSERT efflux ± Mon (Šídák's multiple comparisons test) (hSERT [1]; Row 8 (time fraction)): -4,103 | Mean diff, hSERT efflux ± Mon (Šídák's multiple comparisons test) (hSERT [1]; Row 9 (time fraction)): -5,748 | Mean diff, hSERT efflux ± Mon (Šídák's multiple comparisons test) (hSERT [1]; Row 10 (time fraction)): -5,723 | Mean diff, hSERT efflux ± Mon (Šídák's multiple comparisons test) (hSERT [1]; Row 11 (time fraction)): -5,744 | Mean diff, hSERT efflux ± Mon (Šídák's multiple comparisons test) (hSERT [1]; Row 12 (time fraction)): -5,949 | hSERT-mediated efflux, predicted (LS) mean diff, No mon - Mon (hSERT [2]): -4.314 | IC50 (rDAT): 37 ± 3 nM | DAT/SERT ratio (rDAT): 1.9

CCCC(Cc1ccccc1)N1CCCC1 (centres unmarked) [Prolintane, 1-(1-phenylpentan-2-yl)pyrrolidine]
IC50 (hNET): 59 ± 7 nM | hSERT efflux ± Mon, mean diff (hSERT [1]; Row 1 (2 min fraction 1, baseline KHB)): 0.02682 | hSERT efflux ± Mon, mean diff (hSERT [1]; Row 2 (2 min fraction 2, baseline KHB)): 0.1025 | hSERT efflux ± Mon, mean diff (hSERT [1]; Row 3 (2 min fraction 3, baseline KHB)): 0.1806 | hSERT efflux ± Mon, mean diff (hSERT [1]; Row 4 (fraction 4, KHB with or without 10 μM monensin)): 0.1203 | hSERT efflux ± Mon, mean diff (hSERT [1]; Row 5 (fraction 5, KHB with or without 10 μM monensin)): 0.07151 | hSERT efflux ± Mon, mean diff (hSERT [1]; Row 6 (fraction 6, KHB with or without 10 μM monensin)): -0.1392 | hSERT efflux ± Mon, mean diff (hSERT [1]; Row 7 (fraction 7, KHB with or without 10 μM monensin)): -0.1744 | hSERT efflux ± Mon, mean diff (hSERT [1]; Row 8 (fraction 8, compound at IC50 concentration)): -5.479 | hSERT efflux ± Mon, mean diff (hSERT [1]; Row 9 (fraction 9, compound at IC50 concentration)): -6.902 | hSERT efflux ± Mon, mean diff (hSERT [1]; Row 10 (fraction 10, compound at IC50 concentration)): -6.703 | hSERT efflux ± Mon, mean diff (hSERT [1]; Row 11 (fraction 11, compound at IC50 concentration)): -6.503 | hSERT efflux ± Mon, mean diff (hSERT [1]; Row 12 (fraction 12, compound at IC50 concentration)): -6.083 | hSERT-mediated efflux, predicted (LS) mean diff, No mon - Mon (hSERT [2]): -7.218 | IC50 (rDAT): 61 ± 6 nM | DAT/SERT ratio (rDAT): 38
